Results on 10 molecules are retold here after patent US20260062388A1, “POLYMORPHIC FORM OF NEPICASTAT ACID ADDITION SALT, PREPARATION METHOD THEREFOR AND USE THEREOF” (Jiangsu Yahong Meditech Co., Ltd., priority 2022, published 2026).

Converted amounts (≈) assume the structure as drawn.

Holding throughout (type): physicochemical
Data set [1] in a line: Stability tests on crystal forms of acid addition salts: high-temperature test and accelerated test, 4 weeks. The note with it: for stability under accelerated conditions: 40° C.±2° C./75% RH±5% RH; for stability under high temperature conditions: 60±2° C.
The nature of data set [2]: Stability studies under relatively harsh conditions (40° C., 40° C./75% RH, 60° C., 60° C./75% RH) on crystal forms I and II.
A short description of data set [3]: Competitive experiments of crystal forms I and II by adding crystal seeds (different water activities). The note with it: room temperature, 3 days. As to the method: To confirm stability of the crystal forms at room temperature, the following competitive experiments were conducted for the crystal forms I and II:
The suspensions were stirred for 24 hours at room temperature, and all systems had solid residues. All systems were centrifuged and the supernatants were taken. […] The resulting suspensions were sonicated for 1 minute, stirred for 3 days at room temperature, and sampled to detect the crystal form.

A short description of data set [4]: Dynamic vapor sorption (DVS) hygroscopicity. The procedure: DVS curves are acquired on DVS Intrinsic from SMS (Surface Measurement Systems). • Testing temperature: 25° C. • Sample amount: 10-20 mg • dm/dt: 0.002%/min; • RH range: 0% RH-95% RH-0% RH • RH gradient: 10%
A short description of data set [5]: Approximate solubility test of the free base of nepicastat. The conditions noted are these: for solubility: thermodynamic from solid, approximate solubility. As to the method: In order to select a suitable method for salt form screening, an approximate solubility test was conducted on the compound. The test method was as follows: about 4 mg of the free base of nepicastat was weighed, an appropriate volume of a solvent was added gradually thereto and shaken to observe whether the free base was dissolved, and the volumes of the solvent were recorded, including the volume that enabled complete dissolution and the previous volume of the solvent that was not able to completely dissolve the free base. For poor solubility, the total amount of the solvent added was no more than 4 mL. The approximate solubility thereof was calculated.

Data set [6] is described as follows: Approximate solubility test on crystal forms of hydrochloride salt of nepicastat at room temperature. The conditions noted are these: purified water.
Data set [7] in a line: Approximate solubility tests on crystal forms of acid addition salts of nepicastat in water (room temperature).

As to `NCc1c[nH]c(=S)n1C1CCc2c(F)cc(F)cc2C1.O=C(O)CC(O)(CC(=O)O)C(=O)O` (stereo not shown) [crystal form I of citrate salt, citrate salt of nepicastat], in data set [1], the “stability under accelerated conditions” value is given as “stable” and the “stability under high temperature conditions” value is reported as “the impurities increased”.
Take `NCc1c[nH]c(=S)n1[C@H]1CCc2c(F)cc(F)cc2C1.O=C(O)/C=C/C(=O)O` [crystal form I of fumarate salt, fumarate salt of nepicastat]: in data set [1], the “stability under accelerated conditions” value is on record as “stable” and the “stability under high temperature conditions” value is given as “the impurities increased”.
For `CS(=O)(=O)O.NCc1c[nH]c(=S)n1[C@H]1CCc2c(F)cc(F)cc2C1` [crystal form I of methanesulfonate salt, methanesulfonate salt of nepicastat], in that order: “stable” and “stable”.
The matching figures for `NCc1c[nH]c(=S)n1[C@H]1CCc2c(F)cc(F)cc2C1.O=P(O)(O)O` [crystal form I of phosphate salt, phosphate salt of nepicastat]: “stable” and “the impurities slightly increased”.
With `Cl.NCc1c[nH]c(=S)n1[C@H]1CCc2c(F)cc(F)cc2C1` [crystal form II of hydrochloride salt, hydrochloride salt of nepicastat], the “crystal form stability (XRPD pattern)” value in data set [2] (40° C.) is “converted into the crystal form III”; in data set [2] (40° C./75% RH, 15 days), “the crystal form did not change”; in data set [2] (60° C., 15 days), “converted into the crystal form III”; in data set [2] (60° C./75% RH, 15 days), “the crystal form did not change”. The “stability in competitive experiment” value is given as “could exist stably” in data set [3] (ethanol-water mixed solutions with lower water activity (0.291-0.750)) and “not as good as that of the crystal form I” in data set [3] (purified water). The “hygroscopicity of the sample” value in data set [4] (DVS, 0% RH to 80% RH) is given as “slight hygroscopicity”. For the same molecule, in data set [4] (DVS, from 0% RH to 80% RH, 25° C.), the “weight gain by hygroscopicity” value is “about 0.453%”. Further, the “crystal form before and after the DVS test” value in data set [4] (XRPD before and after DVS) is on record as “remained unchanged”.
Consider `NCc1c[nH]c(=S)n1[C@H]1CCc2c(F)cc(F)cc2C1.NCc1c[nH]c(=S)n1[C@H]1CCc2c(F)cc(F)cc2C1.O=S(=O)(O)O` [crystal form II of sulfate salt (1:0.5), sulfate salt of nepicastat], for which, in data set [1], the “stability under accelerated conditions” value is recorded as “stable” and the “stability under high temperature conditions” value is recorded as “the impurities increased”.
The matching figures for `NCc1c[nH]c(=S)n1[C@H]1CCc2c(F)cc(F)cc2C1.O=S(=O)(O)O` [crystal form III of sulfate salt (1:1), bisulfate salt of nepicastat]: “stable” and “the impurities increased”.
On to `NCc1c[nH]c(=S)n1[C@H]1CCc2c(F)cc(F)cc2C1` [free base of nepicastat, Nepicastat], for which, in data set [5] (in dichloromethane:methanol (1:1, V:V), methanol, acetone and ethanol), the “approximate solubility (qualitative)” value is on record as “higher solubility”. Besides, the solubility was below 1000 µg/mL in data set [5] (organic solvent or mixture, solvent 2-Methyltetrahydrofuran); 4000 to 5000 µg/mL (≈ 13.5 to 16.9 mM) in data set [5] (organic solvent or mixture, solvent Acetone); below 1000 µg/mL in data set [5] (organic solvent or mixture, solvent Dichloromethane); 19700 to 39300 µg/mL (≈ 66.7 to 133 mM) in data set [5] (organic solvent or mixture, solvent Dichloromethane:methanol (1:1)); 2900 to 3400 µg/mL (≈ 9.82 to 11.5 mM) in data set [5] (organic solvent or mixture, solvent Ethanol); below 1000 µg/mL in data set [5] (organic solvent or mixture, solvent Ethyl acetate). For the same molecule, the solubility in data set [5] (organic solvent or mixture, solvent Methanol) was 6900 to 10300 µg/mL (≈ 23.4 to 34.9 mM); in data set [5] (organic solvent or mixture, solvent Methyl tert-butyl ether), below 1000 µg/mL; in data set [5] (organic solvent or mixture, solvent N-heptane), below 1000 µg/mL; in data set [5] (solvent Purified water) it was below 1000 µg/mL.
Regarding `Cl.NCc1c[nH]c(=S)n1[C@H]1CCc2c(F)cc(F)cc2C1` [hydrochloride salt of nepicastat], the “solubility in purified water” value in data set [6] is 7400 µg/mL.
For the molecule “maleate salt of nepicastat [crystal form I of maleate salt]”, in data set [1], the “stability under accelerated conditions” value is “stable” and the “stability under high temperature conditions” value was “stable”. In data set [7] (in purified water, at room temperature, calculated by the salt), the Approximate solubility is 1.8~3.6 mg/mL. In data set [7] (purified water, room temperature), the “solubility in purified water compared with other candidate salt forms” value is reported as “slightly higher than that of other candidate salt forms”.
